Assay results: the NIST ThermoML archive (doi:10.1016/j.fluid.2012.09.001)
“And” between values parts separate entries of the source, which are not always exact repeats. Identical values can stand only once. ± gives the expanded uncertainty stated by the source.

Experiment: molar heat capacity at constant pressure
Settings: 101.33 kPa, Liquid, Flow calorimetry

Compound | molar heat capacity at constant pressure (260.64 K) | molar heat capacity at constant pressure (309.14 K) | molar heat capacity at constant pressure (319.35 K) | molar heat capacity at constant pressure (329.56 K) | molar heat capacity at constant pressure (268.3 K) | molar heat capacity at constant pressure (278.51 K) | molar heat capacity at constant pressure (288.72 K) | molar heat capacity at constant pressure (298.93 K) | molar heat capacity at constant pressure (339.77 K) | also measured
ClC=C(Cl)Cl [trichloroethene] | 126.71 ± 2.5 J/K/mol and 126.63 ± 2.5 J/K/mol | 129.21 ± 2.6 J/K/mol and 129.04 ± 2.6 J/K/mol and 130.29 ± 2.6 J/K/mol | 130.29 ± 2.6 J/K/mol and 131.12 ± 2.6 J/K/mol | 130.95 ± 2.6 J/K/mol and 131.12 ± 2.6 J/K/mol | – | – | – | – | – | molar heat capacity at constant pressure (265.75 K): 126.71 ± 2.5 J/K/mol and 126.8 ± 2.5 J/K/mol and 126.96 ± 2.5 J/K/mol; molar heat capacity at constant pressure (270.85 K): 126.96 ± 2.5 J/K/mol [middle of 4 runs]; molar heat capacity at constant pressure (275.96 K): 127.13 ± 2.5 J/K/mol [middle of 4 runs]; molar heat capacity at constant pressure (281.06 K): 127.38 ± 2.5 J/K/mol and 127.46 ± 2.6 J/K/mol and 127.79 ± 2.6 J/K/mol; molar heat capacity at constant pressure (286.17 K): 127.96 ± 2.6 J/K/mol and 127.88 ± 2.6 J/K/mol and 128.38 ± 2.6 J/K/mol; molar heat capacity at constant pressure (291.27 K): 128.38 ± 2.6 J/K/mol [middle of 4 runs]; molar heat capacity at constant pressure (296.38 K): 128.54 ± 2.6 J/K/mol [middle of 4 runs]; molar heat capacity at constant pressure (301.48 K): 128.96 ± 2.6 J/K/mol [middle of 4 runs]
Cl/C=C/Cl [(E)-1,2-dichloroethene] | – | 114.49 ± 2.3 J/K/mol [middle of 4 runs] | – | – | 112.74 ± 2.3 J/K/mol [middle of 4 runs] | 112.83 ± 2.3 J/K/mol [middle of 4 runs] | 113.41 ± 2.3 J/K/mol [middle of 4 runs] | 113.99 ± 2.3 J/K/mol [middle of 4 runs] | – | –
ClC(Cl)(Cl)c1ccccc1 [(trichloromethyl)benzene] | 209.61 ± 4.2 J/K/mol and 209.36 ± 4.2 J/K/mol and 209.11 ± 4.2 J/K/mol | 220.75 ± 4.4 J/K/mol | 223.83 ± 4.5 J/K/mol | 226.49 ± 4.5 J/K/mol | – | – | – | – | 228.56 ± 4.6 J/K/mol | molar heat capacity at constant pressure (265.75 K): 210.94 ± 4.2 J/K/mol and 210.44 ± 4.2 J/K/mol and 210.27 ± 4.2 J/K/mol; molar heat capacity at constant pressure (270.85 K): 211.44 ± 4.2 J/K/mol and 211.35 ± 4.2 J/K/mol and 211.19 ± 4.2 J/K/mol; molar heat capacity at constant pressure (275.96 K): 212.52 ± 4.3 J/K/mol and 212.77 ± 4.3 J/K/mol; molar heat capacity at constant pressure (281.06 K): 214.18 ± 4.3 J/K/mol and 213.93 ± 4.3 J/K/mol; molar heat capacity at constant pressure (286.17 K): 215.59 ± 4.3 J/K/mol and 215.34 ± 4.3 J/K/mol; molar heat capacity at constant pressure (291.27 K): 217.09 ± 4.3 J/K/mol and 217.01 ± 4.3 J/K/mol and 216.92 ± 4.3 J/K/mol; molar heat capacity at constant pressure (296.38 K): 217.76 ± 4.4 J/K/mol and 217.92 ± 4.4 J/K/mol and 218.01 ± 4.4 J/K/mol; molar heat capacity at constant pressure (301.48 K): 219.34 ± 4.4 J/K/mol and 219.17 ± 4.4 J/K/mol and 219.25 ± 4.4 J/K/mol; molar heat capacity at constant pressure (349.98 K): 230.89 ± 4.6 J/K/mol
Cl/C=C\Cl [(Z)-1,2-dichloroethene] | – | 113.91 ± 2.3 J/K/mol and 113.74 ± 2.3 J/K/mol | – | – | 110.58 ± 2.2 J/K/mol and 110.75 ± 2.2 J/K/mol | 111.08 ± 2.2 J/K/mol and 111 ± 2.2 J/K/mol | 111.91 ± 2.2 J/K/mol and 111.75 ± 2.2 J/K/mol | 112.99 ± 2.3 J/K/mol and 112.66 ± 2.3 J/K/mol and 112.49 ± 2.3 J/K/mol | – | molar heat capacity at constant pressure (258.09 K): 110.33 ± 2.2 J/K/mol and 110.08 ± 2.2 J/K/mol; molar heat capacity at constant pressure (263.2 K): 110.33 ± 2.2 J/K/mol and 110.42 ± 2.2 J/K/mol; molar heat capacity at constant pressure (273.41 K): 111 ± 2.2 J/K/mol; molar heat capacity at constant pressure (283.62 K): 111.41 ± 2.2 J/K/mol and 111.58 ± 2.2 J/K/mol; molar heat capacity at constant pressure (293.83 K): 112.58 ± 2.3 J/K/mol [middle of 4 runs]; molar heat capacity at constant pressure (304.04 K): 113.41 ± 2.3 J/K/mol and 113.49 ± 2.3 J/K/mol
CC(C)(Cl)Cl [2,2-dichloropropane] | 150.33 ± 3 J/K/mol and 150.49 ± 3 J/K/mol and 150.24 ± 3 J/K/mol | 157.39 ± 3.2 J/K/mol and 157.14 ± 3.1 J/K/mol and 156.98 ± 3.1 J/K/mol | 159.22 ± 3.2 J/K/mol and 158.81 ± 3.2 J/K/mol and 158.89 ± 3.2 J/K/mol | 161.13 ± 3.2 J/K/mol and 160.22 ± 3.2 J/K/mol | 151.41 ± 3 J/K/mol and 151.24 ± 3 J/K/mol and 150.99 ± 3 J/K/mol | – | 153.98 ± 3.1 J/K/mol and 153.82 ± 3.1 J/K/mol and 154.07 ± 3.1 J/K/mol | 155.65 ± 3.1 J/K/mol and 154.98 ± 3.1 J/K/mol | – | molar heat capacity at constant pressure (278.52 K): 152.32 ± 3 J/K/mol and 152.24 ± 3 J/K/mol
CCC(Cl)Cl [1,1-dichloropropane] | – | 155.23 ± 3.1 J/K/mol and 154.57 ± 3.1 J/K/mol and 154.15 ± 3.1 J/K/mol | 155.9 ± 3.1 J/K/mol and 157.73 ± 3.2 J/K/mol and 155.56 ± 3.1 J/K/mol | 157.23 ± 3.1 J/K/mol and 157.31 ± 3.1 J/K/mol and 157.64 ± 3.2 J/K/mol | 148.83 ± 3 J/K/mol and 149.66 ± 3 J/K/mol | 150.33 ± 3 J/K/mol and 150.24 ± 3 J/K/mol and 149.99 ± 3 J/K/mol | 151.82 ± 3 J/K/mol and 151.99 ± 3 J/K/mol and 152.4 ± 3.1 J/K/mol | 152.82 ± 3.1 J/K/mol and 153.65 ± 3.1 J/K/mol | 158.97 ± 3.2 J/K/mol and 159.06 ± 3.2 J/K/mol and 159.31 ± 3.2 J/K/mol | molar heat capacity at constant pressure (268.31 K): 149.49 ± 3 J/K/mol
CC(Cl)CCl (configuration not stated) [1,2-dichloropropane] | – | 158.06 ± 3.2 J/K/mol and 157.73 ± 3.2 J/K/mol | 159.39 ± 3.2 J/K/mol and 159.22 ± 3.2 J/K/mol | 161.05 ± 3.2 J/K/mol and 161.22 ± 3.2 J/K/mol | 153.32 ± 3.1 J/K/mol and 152.99 ± 3.1 J/K/mol | 154.15 ± 3.1 J/K/mol and 153.9 ± 3.1 J/K/mol | 155.4 ± 3.1 J/K/mol and 155.15 ± 3.1 J/K/mol | 156.81 ± 3.1 J/K/mol and 156.64 ± 3.1 J/K/mol | 162.8 ± 3.3 J/K/mol | –
